Assay results published in publication PMC9785606, “Design and Synthesis of Novel Phenylahistin Derivatives Based on Co-Crystal Structures as Potent Microtubule Inhibitors for Anti-Cancer Therapy” (Marine Drugs, 2022).
Marks after values point to notes of the source that are not given here.

Experiments:
[1] = tested on: human lung cancer NCI-H460 cell line; assay: MTT cytotoxicity assay, lung cancer NCI-H460 cell line; assay type: cell-based; details: mean ± SD
Method: (§1) Human cancer cell lines (lung cancer NCI-H460 cell line, pancreatic cancer BxPC-3 cell line, colon cancer HT-29 cell line) were purchased from American Type Cell Culture Collection (ATCC, Manassas, VA, USA). Cells were maintained in RPMI-1640 medium supplemented with 10% (v/v) heat-inactivated fetal bovine serum, penicillin-streptomycin (100 U/mL-100 […]) at 37 °C in a humidified atmosphere (5% CO2–95% air). All tested derivatives were dissolved in 100% cell culture grade DMSO. Cells (3 × 10^3 per well) were seeded in 96-well plates for 24 h. Then, cells were treated with the tested compounds in six concentrations for 72 h. Cell viability was assessed by MTT assay. The absorbance at 490 nm was measured with a Microplate Reader (Molecular Devices, Silicon Valley, CA, USA). The data were analyzed by Origin 8.5 (OriginLab, Northampton, MA, USA).

[2] = tested on: pancreatic cancer BxPC-3 cell line; assay: MTT cytotoxicity assay, pancreatic cancer BxPC-3 cell line; assay type: cell-based; details: Homo sapiens, 72 h, mean ± SD
Method: as §1

[3] = tested on: colon cancer HT-29 cell line; assay: MTT cytotoxicity assay, colon cancer HT-29 cell line; assay type: cell-based; details: Homo sapiens, 72 h, mean ± SD
Method: as §1

[4] = tested on: caspase-3; assay: Western blotting of caspase-3 expression; assay type: cell-based
Method: Western blot was performed as previously described with antibody caspase-3 (1:1000) (WB0177/WB0176) or GAPDH (1:3000) (WB0197/WB0196, Shanghai Wei-Ao Biotechnology Co., Shanghai, China). Densities of the Western blotting bands were quantified using ImageJ 19.0. (NIH, Bethesda, MD, USA).

[5] = tested on: H22 hepatoma carcinoma cells transplanted tumor; assay: H22 subcutaneous transplanted tumor model, intravenous administration; details: for Tumor Volume (D15): 14 consecutive days; for Tumor Volume (D1): D1 (baseline), mean ± SD; for Tumor Weight: excised at end of administration; for IR (tumor weight inhibition rate): IR = (1 − TWt/TWc) × 100%
Method: The anticancer effect of the compound 15p was further evaluated against H22 tumor-bearing mice models by intravenous injection at doses of 2 mg/kg, or 4 mg/kg, two or three times a week, and for 14 consecutive days. Docetaxel (10 mg/kg), plinabulin (4 mg/kg), and cyclophosphamide (20 mg/kg) were used as the positive controls.
Balb/c mice (4–6 weeks old, 16–18 g) were purchased from Shanghai Sippr-BK laboratory animal Co. Ltd. The animal study protocol was approved by Institutional Review Board of Science and Technology Division of Linyi University (review opinion on behalf of the Ethics Committee) (The protocol code is LYU20220107, provided on 10 March 2022). H22 cells were grown in RPMI-1640 midium supplemented with 10% fetal bovine serum, and maintained at 37 °C in humidified 5% CO2. Cells were passaged when they reached 70–80% confluence. Viable H22 cells (1 × 10^7 cells/0.2 ml 0.9% sodium chloride) were injected into the peritoneal cavity of BALB/C mice to trigger ascitic cell growth. Later, cells were harvested and suspended. H22 cancer cells (2 × 10^7 cells/0.1 ml 0.9% sodium chloride cells) were subcutaneously injected into the right flank of each mouse. After implantation, the tumor size was measured with an electronic caliper twice a week, and the tumor volume was calculated according to the following formula: tumor volume (mm^3) = 0.5 × length × width^2. When the tumor volume reached about 130 mm^3, the xenograft tumor-bearing BALB/C mice were randomly placed into six groups at 10 mice per group: vehicle, plinabulin (4 mg/kg), 15p ([…]), 15p ([…]), cyclophosphamide (20 mg/kg) and docetaxel (10 mg/kg) groups. Docetaxel, plinabulin, and cyclophosphamide were chosen as positive control drug. The reference compound docetaxel and cyclophosphamide were completely dissolved in isotonic saline. […] The solution of compound 15p was diluted with the concentrated solution and in isotonic saline at a calculated ratio. The solutions of plinabulin were made up according to similar methods. The mice received intravenous administration (iv) every two or three days for consecutive 14 days. The tumor volumes and the body weights were recorded every two or three days after treatment. At the end of the administration period, the animals were euthanized by dislocation, and the tumor bulks were peeled off conforming to the Guide for the Animal use and Management of Shanghai Medicilon Biological Medicine Co. Ltd. The tumor volume was calculated according to the Principles of Non-clinical Research Techniques for Anti-tumor Drugs of Cytotoxic Drugs by China Food and Drug Administration.

[6] = tested on: microtubules in NCI-H460 cells; assay: Immunofluorescence assay of microtubules (β-tubulin/DAPI staining); assay type: cell-based, human; details: 24 h
Method: To further explore the effect of phenylahistin derivatives 1 and 15p on microtubules in cancer cells, an immunofluorescence assay was performed. […] The inhibitory activities were consistent with the previously shown anti-proliferative activities.
NCI-H460 cells were seeded in 24-well plate (with coverslips plated) at the density of 5 × 10^4 cells. […] Then, cells were fixed with 4% cold paraformaldehyde at 4 °C for 15 min and then permeabilized in 0.05% Triton X-100 for 10 min. The cells were blocked in 1% BSA for 30 min. Microtubules were detected by incubation with a monoclonal anti-β-tubulin (β-tubulin antibody was obtained from Servicebio, Wuhan, China.) at 4 °C for 12 h. Subsequently, the cells were washed with PBS and incubated with a FITC-conjugated anti-mouse IgG antibody. Nuclei were stained with DAPI (G1012, Servicebio, Wuhan, China). The coverslips were visualized under fluorescence microscope (Nikon Eclipse C1, Nikon, Japan) and an image-forming system (Nikon DS-U3, Nikon, Tokyo, Japan).

[7] = 10 mg/kg iv, listed as docetaxel
[8] = 4 mg/kg iv, listed as plinabulin
[9] = 20 mg/kg iv, listed as cyclophosphamide

melting point | Structure (SMILES) | IC50 ([1]; Homo sapiens, NCI-H460, 72 h) | also measured
180 to 182 °C | Cc1c(/C=c2\[nH]c(=O)/c(=C/c3cccc(C(=O)c4ccc(F)cc4)c3)[nH]c2=O)ncn1CCN [16a] | 33.4 ± 9.59 nM | –
179 to 180 °C | CC(C)c1c(/C=c2\[nH]c(=O)/c(=C/c3cccc(C(=O)c4ccc(F)cc4)c3)[nH]c2=O)ncn1CCCNC(=O)OC(C)(C)C [15o] | 12.7 ± 0.71 nM | –
198 to 201 °C | CCCCn1cnc(/C=c2\[nH]c(=O)/c(=C/c3cccc(C(=O)c4ccc(F)cc4)c3)[nH]c2=O)c1C(C)C [15k] | 0.94 ± 0.11 nM | –
234 to 236 °C | CCn1cnc(/C=c2\[nH]c(=O)/c(=C/c3cccc(C(=O)c4ccc(F)cc4)c3)[nH]c2=O)c1C(C)C [15f] | 2.01 ± 0.19 nM | –
206 to 208 °C | Cc1c(/C=c2\[nH]c(=O)/c(=C/c3cccc(C(=O)c4ccc(F)cc4)c3)[nH]c2=O)ncn1CCCNC(=O)OC(C)(C)C [15n] | 145.7 ± 0.27 nM | –
190 to 192 °C | CC(C)c1c(/C=c2\[nH]c(=O)/c(=C/c3cccc(C(=O)c4ccc(F)cc4)c3)[nH]c2=O)ncn1CCN [16b] | 11.3 nM | IC50 [2]: 3.27 ± 0.09 nM; IC50 [3]: 5.92 ± 0.39 nM; IC50 ([1]; 72 h): 11.3 ± 3.45 nM
225 to 227 °C | CC(C)c1c(/C=c2\[nH]c(=O)/c(=C/c3cccc(C(=O)c4ccc(F)cc4)c3)[nH]c2=O)ncn1C [15c] | 3.65 ± 0.18 nM | –
203 to 204 °C | CCCCn1cnc(/C=c2\[nH]c(=O)/c(=C/c3cccc(Oc4ccc(F)cc4)c3)[nH]c2=O)c1C(C)C [15j] | 2.49 ± 0.28 nM | IC50 [2]: 1.13 ± 0.35 nM; IC50 [3]: 2.11 ± 0.09 nM; Expression of caspase-3 vs control group and plinabulin group [4]: significantly higher
150 to 152 °C | C#CCn1cnc(/C=c2\[nH]c(=O)/c(=C/c3cccc(C(=O)c4ccc(F)cc4)c3)[nH]c2=O)c1C(C)C [15q] | 1.49 ± 0.31 nM | IC50 [2]: 1.15 ± 0.042 nM; IC50 [3]: 0.67 ± 0.035 nM
– | CC(=O)O[C@@]12CO[C@@H]1C[C@H](O)[C@@]1(C)C(=O)[C@H](O)C3=C(C)[C@@H](OC(=O)[C@H](O)[C@@H](NC(=O)OC(C)(C)C)c4ccccc4)C[C@@](O)([C@@H](OC(=O)c4ccccc4)[C@H]21)C3(C)C [Docetaxel] | – | Tumor Volume (D15) ([5]; 10 mg/kg iv): 903.6 ± 421.7* mm^3; Tumor Volume (D15) [5, 7]: 903.6 mm^3; Tumor Volume (D1) ([5]; 10 mg/kg iv): 103.6 ± 30.75 mm^3; Tumor Weight ([5]; 10 mg/kg iv): 0.55 ± 0.22 g; Tumor Weight [5, 7]: 0.55 g; IR (tumor weight inhibition rate) ([5]; 10 mg/kg iv): 51.6%
– | CC(C)(C)c1[nH]cnc1/C=c1\[nH]c(=O)/c(=C/c2ccccc2)[nH]c1=O [Plinabulin] | 26.2 ± 3.2 nM | IC50 [2]: 5.8 ± 0.2 nM; Effect on microtubule networks ([6]; 10 nM): microtubule networks were damaged; IC50 [3]: 6.6 ± 1.6 nM; Tumor Volume (D15) ([5]; 4 mg/kg iv): 1425.3 ± 411.2 mm^3; Tumor Volume (D15) [5, 8]: 1425.3 mm^3; Tumor Volume (D1) ([5]; 4 mg/kg iv): 104.7 ± 26.66 mm^3; Tumor Weight ([5]; 4 mg/kg iv): 0.77 ± 0.31 g; Tumor Weight [5, 8]: 0.77 g; IR (tumor weight inhibition rate) ([5]; 4 mg/kg iv): 31.9%
189 to 191 °C | Cc1c(/C=c2\[nH]c(=O)/c(=C/c3cccc(C(=O)c4ccc(F)cc4)c3)[nH]c2=O)ncn1CCNC(=O)OC(C)(C)C [15l] | 105 ± 11.7 nM | –
199 to 201 °C | CC(C)c1c(/C=c2\[nH]c(=O)/c(=C/c3cccc(C(=O)c4ccc(F)cc4)c3)[nH]c2=O)ncn1CCCN [16d] | 5.38 ± 1.46 nM | IC50 [2]: 2.35 ± 1.75 nM; IC50 [3]: 2.45 ± 0.42 nM
195 to 198 °C | CCn1cnc(/C=c2\[nH]c(=O)/c(=C/c3cccc(Oc4ccc(F)cc4)c3)[nH]c2=O)c1C(C)C [15e] | 12.2 ± 0.27 nM | –
– | CC(C)(C)c1[nH]cnc1/C=c1\[nH]c(=O)/c(=C/c2cccc(C(=O)c3ccc(F)cc3)c2)[nH]c1=O [compound 1] | – | Effect on microtubule networks ([6]; 2 nM): microtubule networks were damaged
218 to 219 °C | CC(C)c1c(/C=c2\[nH]c(=O)/c(=C/c3cccc(Oc4ccc(F)cc4)c3)[nH]c2=O)ncn1C [15b] | 40.4 ± 0.82 nM | –
224 to 226 °C | Cc1c(/C=c2\[nH]c(=O)/c(=C/c3cccc(C(=O)c4ccc(F)cc4)c3)[nH]c2=O)ncn1C [15a] | 21.1 nM | IC50 ([1]; 72 h): 21.1 ± 1.3 nM
247 to 248 °C | Cc1c(/C=c2\[nH]c(=O)/c(=C/c3cccc(C(=O)c4ccc(F)cc4)c3)[nH]c2=O)ncn1CCCN [16c] | 103 ± 11.7 nM | –
201 to 203 °C | CCCn1cnc(/C=c2\[nH]c(=O)/c(=C/c3cccc(Oc4ccc(F)cc4)c3)[nH]c2=O)c1C(C)C [15h] | 5.4 ± 0.15 nM | –
– | O=P1(N(CCCl)CCCl)NCCCO1 (stereo not drawn) [Cyclophosphamide] | – | Body weight compared to the control group ([5]; 20 mg/kg iv): decreased the body weights; Tumor Volume (D15) ([5]; 20 mg/kg iv): 687.2 ± 288.6* mm^3; Tumor Volume (D15) [5, 9]: 687.2 mm^3; Tumor Volume (D1) ([5]; 20 mg/kg iv): 105.1 ± 30.26 mm^3; Tumor Weight ([5]; 20 mg/kg iv): 0.42 ± 0.24 g; Tumor Weight [5, 9]: 0.42 g; IR (tumor weight inhibition rate) ([5]; 20 mg/kg iv): 62.6%
200 to 202 °C | CCCn1cnc(/C=c2\[nH]c(=O)/c(=C/c3cccc(C(=O)c4ccc(F)cc4)c3)[nH]c2=O)c1C(C)C [15i] | 1.67 ± 0.15 nM | –
214 to 216 °C | CCCn1cnc(/C=c2\[nH]c(=O)/c(=C/c3cccc(C(=O)c4ccc(F)cc4)c3)[nH]c2=O)c1C [15g] | 4.93 ± 0.25 nM | –
204 to 206 °C | CC(C)c1c(/C=c2\[nH]c(=O)/c(=C/c3cccc(C(=O)c4ccc(F)cc4)c3)[nH]c2=O)ncn1CCNC(=O)OC(C)(C)C [15m] | 27.3 ± 1.32 nM | –

Structure (SMILES) | melting point | IC50 ([1]; Homo sapiens, NCI-H460, 72 h) | also measured
CCn1cnc(/C=c2\[nH]c(=O)/c(=C/c3cccc(C(=O)c4ccc(F)cc4)c3)[nH]c2=O)c1C [15d] | 227 to 229 °C | 16.9 ± 1.5 nM | –
